Measurements published in US20090131380A1, “Novel pharmaceutical composition for topical treatment of skin psoriasis and the treatment method thereof” (priority 2007, published 2009).

How the values were obtained:
skin psoriasis = conditions: cited from earlier work; for clinical antipsoriatic efficacy: topical, 0.05% (w/w) in Locobase® unctuous creme, 50 μg/cm^2/24 h, 35 days; for effect on psoriatic rash (irritation / worsening): topically administered
[1] = system: psoriatic plaques (skin psoriasis); experiment: Topical treatment trial of psoriatic plaques in one psoriasis patient (Tetrac, Control and Daivonex regimens); assay type: in vivo, human; conditions: twice a day
Method: A psoriasis patient having almost symmetrical psoriatic plaques on the lateral sides of both elbows (l.dx: 41 cm^2 and l.sin: 44 cm^2) and a psoriatic plaque (53 cm^2) on right calf was chosen for the trial.
a) An ointment (Locobase® unctuous creme, Astellas Pharma A/S Glostrup, Denmark) in which 500 μg/g 3,3′,5,5′-tetraiodothyroacetic acid (0.05%) of GMP-quality (Pharmatory Ltd., Oulu, Finland) was mixed was used as an ex tempore preparation for the concerned treatment purpose (hereinafter referred to as “Tetrac”).
b) A 50 μg/g calcipotriol (0.005%) containing creme (Daivonex®, LEO Pharma A/S, Ballerup, Denmark) was available as commercial pharmaceutical product (hereinafter referred to as “Daivonex®”).
c) A betamethasone 17-valerate-containing creme (Bemetson®, Orion oyj, Espoo, Finland) responding betamethasone 1 mg/g (0.1%) was available as a commercial product (hereinafter referred to as “Bemetson®”).
a) The psoriatic lesion of the left elbow of the patient was selected as the target of the topical treatment with Tetrac, the result of which is shown in left column of FIG. 1—“The Tetrac Regimen”. […]

psoriasis = conditions: topical Triac; WO96/40048; cited from earlier work
plaque psoriasis = conditions: placebo-controlled double-blind study, carried out in 1997; cited from earlier work

Row | SMILES | clinical antipsoriatic efficacy (skin psoriasis) | effect on psoriatic rash (irritation / worsening) (skin psoriasis) | other results
1 | N[C@H](Cc1cc(I)c(Oc2cc(I)c(O)c(I)c2)c(I)c1)C(=O)O [D-thyroxine] | ineffective | do not irritate or worsen psoriatic rash | 
2 | O=C(O)CCc1cc(I)c(Oc2cc(I)c(O)c(I)c2)c(I)c1 [Tetraprop, 3,3′,5,5′-tetraiodothyropropionic acid] | strong clinical antipsoriatic efficacy |  | 
3 | O=C(O)Cc1cc(I)c(Oc2cc(I)c(O)c(I)c2)c(I)c1 [Tetrac, 3,3′,5,5′-tetraiodothyroacetic acid] | strong clinical antipsoriatic efficacy |  | clinical antipsoriatic effect on psoriatic lesion ([1]; after five weeks, photographs FIG. 1 / FIG. 2): clear clinical antipsoriatic effect; clinical antipsoriatic effect / healing of psoriatic plaque at end of trial ([1]; six weeks, Bemetson® (betamethasone) concurrently added for the final sixth week): surprisingly more potent clinical antipsoriatic effect
4 | N[C@@H](Cc1cc(I)c(Oc2ccc(O)c(I)c2)c(I)c1)C(=O)O [L-triiodothyronine] |  | greatly worsen psoriatic rash | 
5 | N[C@@H](Cc1cc(I)c(Oc2cc(I)c(O)c(I)c2)c(I)c1)C(=O)O [L-thyroxine] |  | greatly worsen psoriatic rash | 
6 | O=C(O)Cc1cc(I)c(Oc2ccc(O)c(I)c2)c(I)c1 [Triac, 3,3′5-triiodothyroacetic acid] | indeed ineffective | do not irritate or worsen psoriatic rash | experiment persons in whom an antipsoriatic effect had emerged (psoriasis): 60%; efficacy in the topical treatment of plaque psoriasis (plaque psoriasis): ineffective
